According to US20240360087A1, “THERMODYNAMICALLY STABLE FORM OF SCO-101” (SCANDION ONCOLOGY A/S, priority 2021, published 2024):
“Also recorded” adds a separate entry of the source.

What was measured:
Type in all cases: physicochemical
[1] = Storage at 40° C./75% RH in an open vial, XRPD; details: 3 days
Method: 200 mg SCO-101, Form III (Pattern 24) was placed at 40° C./75% RH in an open vial covered with tissue for 3 days.

[2] = Variable temperature XRPD (VT-XRPD) of solid form conversion; details: mixture of Form III and Form IV at 150° C.
[3] = Dynamic vapour sorption (DVS), hygroscopicity; details: for mass gain at 90% relative humidity (DVS): 25° C.; for hygroscopicity (DVS), in words: RH up to 90%
Method: Approximately 10-20 mg of sample was placed into a mesh vapour sorption balance pan and loaded into a DVS Intrinsic or Advantage dynamic vapour sorption balance by Surface Measurement Systems. The sample was subjected to a ramping profile from 40-90% relative humidity (RH) at 10% increments, maintaining the sample at each step until a stable weight had been achieved (dm/dt 0.004%, minimum step length 30 minutes, maximum step length 120 minutes) at 25° C. After completion of the sorption cycle, the sample was dried using the same procedure to 0% RH and then a second sorption cycle back to 40% RH. Two cycles were performed. The weight change during the sorption/desorption cycles were plotted, allowing for the hygroscopic nature of the sample to be determined. XRPD analysis was then carried out on any solid retained.

[4] = Competitive slurry experiments (thermodynamic stability of solid forms); details: for Form/Pattern after slurrying for 3 days: 1:1 mixture with Form I, 40° C., XRPD; for thermodynamic stability of the solid form, in words: conclusion from competitive slurry experiments and thermal data
Method: The slurries were stirred at 40° C. for 3 days. After 3 days, the solids were filtered centrifugally and analysed by XRPD.

[5] = saturated acetone:heptane (50:50% v/v)
[6] = saturated acetone:water (50:50% v/v)

solid form after storage (XRPD) [1] | temperature of complete transformation into Form IV (VT-XRPD) [2] | water absorbed at 90% RH (DVS) ([3]; 90% RH) | mass gain at 90% relative humidity (DVS) ([3]; 90% RH) | weight gain when increasing RH from 70% to 80% (DVS) ([3]; RH 70% to 80%, corresponds to monohydrate) | hygroscopicity (DVS), in words ([3]; listed as crystal form II) | Form/Pattern after slurrying for 3 days [4, 5] | Form/Pattern after slurrying for 3 days [4, 6] | hygroscopicity (DVS), in words ([3]; listed as crystal form I) | Structure (SMILES) | hygroscopicity (DVS), in words [3] | thermodynamic stability of the solid form, in words [4]
Form IV, Pattern 29 | 155 °C | – | – | – | – | – | – | – | O=C(Nc1cc(C(F)(F)F)cc(C(F)(F)F)c1)Nc1ccc(Br)cc1-c1nnn[nH]1 [Form III, N-[4-Bromo-2-(1H-1,2,3,4-tetrazol-5-yl)phenyl]-N′-[3,5-bis(trifluoromethyl)phenyl]urea] | – | –
– | – | approx. 6 % (w/w) | approx 6% | 3% | hygroscopic | Form I | Form I | – | O=C(Nc1cc(C(F)(F)F)cc(C(F)(F)F)c1)Nc1ccc(Br)cc1-c1nnn[nH]1 [Form II, N-[4-Bromo-2-(1H-1,2,3,4-tetrazol-5-yl)phenyl]-N′-[3,5-bis(trifluoromethyl)phenyl]urea] | takes up water to form a hydrate; also recorded: hygroscopic | metastable form
– | – | – | no increase in mass | – | – | – | – | non-hygroscopic | O=C(Nc1cc(C(F)(F)F)cc(C(F)(F)F)c1)Nc1ccc(Br)cc1-c1nnn[nH]1 [Form I, N-[4-Bromo-2-(1H-1,2,3,4-tetrazol-5-yl)phenyl]-N′-[3,5-bis(trifluoromethyl)phenyl]urea] | non-hygroscopic | thermodynamically most stable polymorph; also recorded: thermodynamically stable polymorph
– | – | – | – | – | – | Form I | Form I | – | O=C(Nc1cc(C(F)(F)F)cc(C(F)(F)F)c1)Nc1ccc(Br)cc1-c1nnn[nH]1 [Pattern 5, N-[4-Bromo-2-(1H-1,2,3,4-tetrazol-5-yl)phenyl]-N′-[3,5-bis(trifluoromethyl)phenyl]urea] | – | –
